Measurements taken from patent US8609608B2, “Antimicrobial peptides” (C3 Jian, Inc., priority 2007, dated 2013).
Where two headings read alike, the source gives them in different places. Where no end group is shown, it is not given here.

Legend:
[1] = test system: clinical isolates of S. mutans; type: cell-based, Streptococcus mutans
Procedure: S. mutans clinical isolates UA140 (32), UA159 (1), T8 (33), ATCC 25175, GS5 (Kuramitsu and Ingersoll (1977) Infect Immun., 17: 330-337), and all gram-positive strains listed below (see Table 9) were grown under anaerobic conditions in brain heart infusion or Todd-Hewitt (TH) broth (Difco) overnight at 37° C. prior to use (Eckert et al. (2006) Antimicrob. Agents Chemother. 50: 3651-3657). Veillonella atypica PK1910 was grown in Veillonella medium (Egland et al. (2004) Proc. Natl. Acad. Sci., USA, 101: 16917-16922). All strains were grown in an anaerobic atmosphere of 80% N2, 10% CO2, and 10% H2.
Antibacterial growth inhibition assays were performed using sterile 96-well plates in a final volume of 100 μl, TH or Veillonella medium as described previously (Qi et al. (2005) FEMS Microbial Lett. 251: 321-326). Briefly, bacterial cells were grown overnight to an optical density at 600 nm of 0.75 to 0.8 (corresponding to 1×10^8 CFU/ml) and then diluted to 1×10^5 CFU/ml in broth and aliquoted onto plates. An appropriate volume of peptide stock solution (5 to 20 mg/ml, in water or methanol, depending on solubility) was then added to the first column of the plate to give 500 μg/ml or 512 μg/ml, followed by serial 1:2 dilutions across the plate to give wells containing peptides ranging from 500 to 1.95 μg/ml or 512 to 2 μg/ml. Methanol alone was also added to control for the effects of the solvent. The plates were then incubated at 37° C. under anaerobic conditions for 16 to 20 h without shaking, and the MIC was determined as the concentration of peptide present in the last clear well after visual inspection. Up to 5% (vol/vol) methanol was found not to be antimicrobial (data not shown). MICs were determined in triplicate for all bacteria.

P. aeruginosa = experiment: MIC against P. aeruginosa; type: cell-based, Pseudomonas aeruginosa

| Substance | MIC ([1]; clinical isolates of) | also measured |
| --- | --- | --- |
| FKTFLQWLHRF-NH2 [Peptide B-53, FKTFLQWLHRF*] | 16 to 64 µg/mL | activity against S. mutans by MIC, in words [1]: active but to a lesser degree than B-33 or B-34 |
| IKVFAKQKY-NH2 [Peptide S6L1-7, IKVFAKQKY*] |  | MIC S. mutans ([1]; clinical isolates of): >500 µg/mL; MIC S. aureus (S. aureus; Killing Peptide Library #7): >500 µg/mL; MIC P. aeruginosa (P. aeruginosa): >500 µg/mL |
| RRRRWWW [Peptide 1C-1, RRRRWWW] | 16 µg/mL |  |
| YLFQTWQHLFR-OH [Peptide B-51, YLFQTWQHLFR] | >125 µg/mL |  |
| RVLNQVKQILK [Peptide B-60, RVLNQVKQILK] | >125 µg/mL |  |
| RALKRIKHVLK [Peptide B-64, RALKRIKHVLK] | >125 µg/mL |  |
| FKTFLKWLHRF-NH2 [Peptide B-37, FKTFLKWLHRF*] | 24 µg/mL | activity against S. mutans by MIC, in words [1]: active but to a lesser degree than B-33 or B-34 |
| RILKELKNLFK-OH [Peptide B-40, RILKELKNLFK] | >250 µg/mL |  |
| RWRRWWRHFHHFFH-NH2 [α-9, RWRRWWRHFHHFFH*] | 8 µg/mL |  |
| VKNLAELVHRF-NH2 [Peptide B-45, VKNLAELVHRF*] | >250 µg/mL |  |
| VKTLLHIFQRF-NH2 [Peptide B-42, VKTLLHIFQRF*] | 31.25 to 125 µg/mL |  |
| RLLKRFKHLFK-OH [Peptide B-36, RLLKRFKHLFK] | 31.25 to 125 µg/mL |  |
| RWRKRWK [Peptide 4C-4, RWRKRWK] | 125 to 500 µg/mL |  |
| KLKKLLKRWRRWWR-OH [α-10, KLKKLLKRWRRWWR] | 8 µg/mL |  |
| RWRWRWR [Peptide 1C-4, RWRWRWR] | 32 µg/mL |  |
| LKQLKAGIY-NH2 [Peptide S6L1-3, LKQLKAGIY*] |  | MIC S. mutans ([1]; clinical isolates of): >500 µg/mL; MIC S. aureus (S. aureus; Killing Peptide Library #7): >500 µg/mL; MIC P. aeruginosa (P. aeruginosa): 250 µg/mL |
| RVLQEIKQILK-OH [Peptide B-44, RVLQEIKQILK] | >250 µg/mL |  |
| AQAAKQAAKAAKQF-NH2 [α-8, AQAAKQAAKAAKQF*] |  | activity against S. mutans by MIC, in words [1]: inactive; MIC ([1]; MIC range or value from all S. mutans isolates tested, binary, alpha-helix and RW libraries): >125 µg/mL |
| KLVEQLKEIFR-OH [Peptide B-43, KLVEQLKEIFR] | >250 µg/mL |  |
| LKQFVHFIHRF-NH2 [Peptide B-41, LKQFVHFIHRF*] | 32 µg/mL | activity against S. mutans by MIC, in words [1]: active but to a lesser degree than B-33 or B-34 |
| LKQFVKFIHRF-NH2 [Peptide B-57, LKQFVKFIHRF*] | 24 µg/mL | activity against S. mutans by MIC, in words [1]: active but to a lesser degree than B-33 or B-34 |

| Substance | MIC ([1]; clinical isolates of) | also measured |
| --- | --- | --- |
| KLLQTFNQIFR-OH [Peptide B-55, KLLQTFNQIFR] | >125 µg/mL |  |
| KLKKLLKKLKKLLK [α-5, KLKKLLKKLKKLLK] | 8 µg/mL |  |
| LHIHAHFHVHIHLHF [Peptide S3L8-8, LHIHAHFHVHIHLHF] |  | MIC S. aureus (S. aureus): >125 µg/mL; MIC L. casei (L. casei): >62.5 µg/mL; MIC P. aeruginosa (P. aeruginosa): >125 µg/mL; MIC E. faecalis (E. faecalis): >125 µg/mL |
| KLFKRWKHLFR-OH [Peptide B-35, KLFKRWKHLFR] | 31.25 to 125 µg/mL |  |
| RRRKWWK [Peptide 4C-3, RRRKWWK] | 125 µg/mL |  |
| RRRRWWK [Peptide 3C-1, RRRRWWK] | 125 µg/mL |  |
| RRWKRRK [Peptide 4C-2, RRWKRRK] | 500 µg/mL |  |
| LQLLKQLLKLLKQF-NH2 [α-7, LQLLKQLLKLLKQF*] | 8 µg/mL |  |
| KLKKLLKHLHHLLH-NH2 [α-12, KLKKLLKHLHHLLH*] | 8 µg/mL |  |
| RRWWRRF-NH2 [Peptide 2C-2, RRWWRRF*] | 12 to 24 µg/mL |  |
| RRWWRRW [Peptide 1C-2, RRWWRRW] | 16 µg/mL |  |
| AKRLLKVLKRF-NH2 [Peptide B-62, AKRLLKVLKRF*] | 16 to 32 µg/mL |  |
| LKQKLKILF-NH2 [Peptide S6L1-2, LKQKLK1LF*] |  | MIC S. mutans ([1]; Killing Peptide Library #7): 125 µg/mL; MIC S. aureus (S. aureus; Killing Peptide Library #7): >500 µg/mL; MIC P. aeruginosa (P. aeruginosa; Killing Peptide Library #7): >500 µg/mL |
| RRRFWWR [Peptide 2C-1, RRRFWWR] | 31.25 to 125 µg/mL |  |
| VKKLAKLVRRF-NH2 [Peptide B-61, VKKLAKLVRRF*] | 16 to 32 µg/mL |  |
| RRWWRRK [Peptide 3C-2, RRWWRRK] | 125 µg/mL |  |
| RWRWRWK [Peptide 3C-4, RWRWRWK] | 32 µg/mL |  |
| FHVKIHFRLHVKFHF [Peptide S3L8-7, FHVKIHFRLHVKFHF] |  | MIC S. aureus (S. aureus): >125 µg/mL; MIC L. casei (L. casei): 16 µg/mL; MIC P. aeruginosa (P. aeruginosa): >125 µg/mL; MIC E. faecalis (E. faecalis): >125 µg/mL |
| FLHKHVLRHRIVF [Peptide S3L8-14, FLHKHVLRHRIVF] |  | MIC S. aureus (S. aureus): >125 µg/mL; MIC L. casei (L. casei): >62.5 µg/mL; MIC P. aeruginosa (P. aeruginosa): >125 µg/mL; MIC E. faecalis (E. faecalis): >125 µg/mL |
| RRRKWWK [Peptide 4C-1, RRRKWWK] | 250 µg/mL |  |
| RRRWWWR [Peptide 1C-3, RRRWWWR] | 32 µg/mL |  |

| Substance | MIC ([1]; clinical isolates of) | also measured |
| --- | --- | --- |
| FHYFWHWFHRF-NH2 [Peptide B-49, FHYFWHWFHRF*] | 125 µg/mL | activity against S. mutans by MIC, in words [1]: weakly active |
| KLVQQLKNIFR-OH [Peptide B-59, KLVQQLKNIFR] | >125 µg/mL |  |
| ATHLLHALQRF-NH2 [Peptide B-46, ATHLLHALQRF*] | >250 µg/mL |  |
| KLAENVKEILR-OH [Peptide B-47, KLAENVKEILR] | >250 µg/mL |  |
| AQAAHQAAHAAHQF-NH2 [α-4, AQAAHQAAHAAHQF*] | >125 µg/mL | activity against S. mutans by MIC, in words [1]: inactive |
| VKQLLKIFNRF-NH2 [Peptide B-58, VKQLLKIFNRF*] | 32 to 62.5 µg/mL | activity against S. mutans by MIC, in words [1]: active but to a lesser degree than B-33 or B-34 |
| RFRHFQERY-NH2 [Peptide S6L1-8, RFRHFQERY*] |  | MIC S. mutans ([1]; clinical isolates of): 64 µg/mL; MIC S. aureus (S. aureus; Killing Peptide Library #7): 125 µg/mL; MIC P. aeruginosa (P. aeruginosa): >500 µg/mL |
| RRRWWWK [Peptide 3C-3, RRRWWWK] | 31.25 to 125 µg/mL |  |
| RALHEAKEALK-OH [Peptide B-48, RALHEAKEALK] | >250 µg/mL |  |
| IKTLLHFFQRF-NH2 [Peptide B-54, IKTLLHFFQRF*] | 32 to 62.5 µg/mL | activity against S. mutans by MIC, in words [1]: active but to a lesser degree than B-33 or B-34 |
| VGKCVKLLY-NH2 [Peptide S6L1-4, VGKCVKLLY*] |  | MIC S. mutans ([1]; clinical isolates of): 125 µg/mL; MIC S. aureus (S. aureus; Killing Peptide Library #7): 500 µg/mL; MIC P. aeruginosa (P. aeruginosa): 250 µg/mL |
| KLLQTFKQIFR-OH [Peptide B-39, KLLQTFKQIFR] | >250 µg/mL |  |
| KLVKLVFLY-NH2 [Peptide S6L1-6, KLVKLVFLY*] |  | MIC S. mutans ([1]; clinical isolates of): 125 µg/mL; MIC S. aureus (S. aureus; Killing Peptide Library #7): >500 µg/mL; MIC P. aeruginosa (P. aeruginosa): >500 µg/mL |
| YLLTEFQHLFK-OH [Peptide B-52, YLLTEFQHLFK] | >125 µg/mL |  |
| IKQLLHFFQRFGGGRWRRLLKKLHHLLH-NH2 [FBα-13, IKQLLHFFQRF-GGG-RWRRLLKKLHHLLH*] |  | MIC (fusion library peptides) ([1]; clinical isolates of): 16 µg/mL |
| KFVKLILAY-NH2 [Peptide S6L1-5, KFVKLI LAY*] |  | activity against S. mutans by MIC, in words [1]: moderate activity; MIC S. mutans ([1]; clinical isolates of): 32 µg/mL; MIC S. aureus (S. aureus; Killing Peptide Library #7): >500 µg/mL; MIC P. aeruginosa (P. aeruginosa): 92 µg/mL |
| FKKFWKWFRRFGGGRWRRLLKKLHHLLH-NH2 [FBα-12, FKKFWKWFRRF-GGG-RWRRLLKKLHHLLH*] |  | MIC (fusion library peptides) ([1]; clinical isolates of): 16 µg/mL |
| KLAQKVKRVLR [Peptide B-63, KLAQKVKRVLR] | >125 µg/mL |  |
| LYHFLHWFQRF-NH2 [Peptide B-50, LYHFLHWFQRF*] | 125 µg/mL | activity against S. mutans by MIC, in words [1]: weakly active |
